Experimental findings from patent publication US20110152166A1, “METHOD OF MODULATION OF PROTEIN PHOSPHORYLATION-DEPENDENT CONFORMATIONAL TRANSITIONS WITH LOW MOLECULAR WEIGHT COMPOUNDS” (priority 2006, published 2011) are described below.

Experiment in all cases: PDK1 activity assay with T308tide
Format in all cases: biochemical

The target in one assay is T1, GST-PDK1 [Arg131Ala] (Homo sapiens, UniProt O15530, R131A).
T1 construct: different protein constructs, comprising the full length protein or the catalytic domain alone; made in house; host or cells: HEK293 cells (pEBG-2T-PDK1 mutant)
T1 sequence (O15530 1-556 R131A): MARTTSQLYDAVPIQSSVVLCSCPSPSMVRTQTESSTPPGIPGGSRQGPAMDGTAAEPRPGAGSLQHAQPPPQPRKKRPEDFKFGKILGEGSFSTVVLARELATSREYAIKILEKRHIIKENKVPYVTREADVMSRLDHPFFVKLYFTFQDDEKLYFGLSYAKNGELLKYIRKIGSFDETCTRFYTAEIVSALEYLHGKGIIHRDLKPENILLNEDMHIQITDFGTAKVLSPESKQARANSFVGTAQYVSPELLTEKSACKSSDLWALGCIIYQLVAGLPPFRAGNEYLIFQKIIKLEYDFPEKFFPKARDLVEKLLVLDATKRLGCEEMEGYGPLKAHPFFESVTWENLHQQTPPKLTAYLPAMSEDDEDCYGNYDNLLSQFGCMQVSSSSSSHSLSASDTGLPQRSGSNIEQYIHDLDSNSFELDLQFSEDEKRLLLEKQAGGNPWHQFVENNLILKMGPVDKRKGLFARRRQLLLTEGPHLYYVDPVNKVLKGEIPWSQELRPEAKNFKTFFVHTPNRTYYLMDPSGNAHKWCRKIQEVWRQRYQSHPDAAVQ
To be noted: for AC50 / Max. activity: GST-PDK1 [Arg131Ala].

A further assay has as its target T2, GST-PDK1 [Arg131Met] (Homo sapiens, UniProt O15530, R131M).
T2 construct: different protein constructs, comprising the full length protein or the catalytic domain alone; made in house; host or cells: HEK293 cells (pEBG-2T-PDK1 mutant)
T2 sequence (O15530 1-556 R131M): T1 sequence (O15530 1-556 R131A) with A131M

A further assay concerns the target T3, GST-PDK1 [Gln150Lys] (Homo sapiens, UniProt O15530, Q150K).
T3 construct: different protein constructs, comprising the full length protein or the catalytic domain alone; made in house; host or cells: HEK293 cells (pEBG-2T-PDK1 mutant)
T3 sequence (O15530 1-556 Q150K): T1 sequence (O15530 1-556 R131A) with A131R, Q150K

Positions count from the first letter of the chain named. Like-named read-outs stand apart in the source and are kept apart here. Ends that are not written are not given here.

What is called AC50 is the concentration giving half of the maximal activity seen.

With `O=C(O)CSC(CC(=O)c1ccc(Cl)cc1)c1ccccc1` (stereo not shown) [Compound 1], the “activation of PDK1 mutant (in words)” value on GST-PDK1 [Arg131Ala] (Arg131 mutated to Ala) and on GST-PDK1 [Arg131Met] (Arg131 mutated to Met) was “no longer activated” throughout. Further, the concentration at half-maximal activity (AC50) was more than 200 µM at GST-PDK1 [Arg131Ala], “No Effect” at GST-PDK1 [Arg131Met] (GST-PDK1 [Arg131Met]) and 15 ± 4 µM on GST-PDK1 [Gln150Lys]. The Max. activity is recorded as 1.09 ± 0.06 U/mg on GST-PDK1 [Arg131Ala] and 1.37 ± 0.06 U/mg at GST-PDK1 [Gln150Lys].
As for “REPRILSEEEQEMFRDFDYIADWC [PIFtide, reference compound]”, the AC50 at GST-PDK1 [Arg131Ala] turned out to be 3.7 ± 2 µM; at GST-PDK1 [Arg131Met] (GST-PDK1 [Arg131Met], read-out: AC50), 0.29 ± 0.05 µM; at GST-PDK1 [Gln150Lys], 0.29 ± 0.05 µM. Moreover, the Max. activity on GST-PDK1 [Arg131Ala] came to 1.24 ± 0.8 U/mg; on GST-PDK1 [Arg131Met] (GST-PDK1 [Arg131Met]), 0.34 ± 0.06 U/mg; on GST-PDK1 [Gln150Lys], 2.7 ± 0.2 U/mg.
